target: T1, Human OTUB1 wild-type (Homo sapiens, UniProt Q96FW1); assay: Covalent modification of OTUB1 (adduct formation), mass spectrometry-based assay (OTUB1 covalent binders; selected CFTR or cGAS based bivalent compounds); format: binding; conditions: covalent adduct formation with OTUB1 protein
T1 construct: His tag (N); made in house; host or cells: E. coli BL21-CodonPlus (DE3)-RIPIL
Summary of the method: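 His-tagged human OTUB1 (10 μM), E. coli-expressed, incubated with compound (2500 μM) in 50 mM Tris-HCl pH 7.5, 150 mM NaCl, 0.5 mM TCEP for 1 h at room temperature. Adduct detected by intact-protein LC/ESI-TOF mass spectrometry after buffer exchange; duplicates.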

T1 sequence (Q96FW1 whole entry): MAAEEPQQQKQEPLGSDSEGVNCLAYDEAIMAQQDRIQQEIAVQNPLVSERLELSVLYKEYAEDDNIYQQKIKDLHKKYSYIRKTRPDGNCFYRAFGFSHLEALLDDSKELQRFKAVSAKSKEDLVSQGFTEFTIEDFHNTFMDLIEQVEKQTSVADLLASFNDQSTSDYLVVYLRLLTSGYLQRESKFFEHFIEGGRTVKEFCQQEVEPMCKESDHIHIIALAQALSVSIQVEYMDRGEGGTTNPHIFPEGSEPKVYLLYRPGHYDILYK

| SMILES | % of OTUB1 modified [%] |
| --- | --- |
| CC(=O)N1CCC(c2ccc(C(=O)N3CC4CC(C3)N4C(=O)/C=C/CN(C)C)s2)CC1 [XS197-72, (E)-1-(3-(5-(1-acetylpiperidin-4-yl)thiophene-2-carbonyl)-3,6-diazabicyclo[3.1.1]heptan-6-yl)-4-(dimethylamino)but-2-en-1-one] | 90 |
| CN(C)C/C=C/C(=O)N1C2CC1CN(C(=O)c1ccc(C3CCN(C)C3)s1)C2 (stereo not shown) [XS197-73, (E)-4-(dimethylamino)-1-(3-(5-(1-methylpyrrolidin-3-yl)thiophene-2-carbonyl)-3,6-diazabicyclo[3.1.1]heptan-6-yl)but-2-en-1-one] | 90 |
| CN(C)C/C=C/C(=O)N1C2CC1CN(C(=O)c1ccc(C3CCN(C)CC3)s1)C2 [XS197-74, (E)-4-(dimethylamino)-1-(3-(5-(1-methylpiperidin-4-yl)thiophene-2-carbonyl)-3,6-diazabicyclo[3.1.1]heptan-6-yl)but-2-en-1-one] | 92 |
| CN(C)C/C=C/C(=O)N1C2CC1CN(C(=O)C1CN(C)C1)C2 [XS197-85, (E)-4-(dimethylamino)-1-(3-(1-methylazetidine-3-carbonyl)-3,6-diazabicyclo[3.1.1]heptan-6-yl)but-2-en-1-one] | 45 |
| COCC#Cc1ccc(C(=O)N2CC3CC(C2)N3C(=O)/C=C/CN(C)C)s1 [XS197-93, (E)-4-(dimethylamino)-1-(3-(5-(3-methoxyprop-1-yn-1-yl)thiophene-2-carbonyl)-3,6-diazabicyclo[3.1.1]heptan-6-yl)but-2-en-1-one] | 80 |
| CN(C)C/C=C/C(=O)N1C2CC1CN(C(=O)c1ccc(C#CCO)s1)C2 [XS197-94, (E)-4-(dimethylamino)-1-(3-(5-(3-hydroxyprop-1-yn-1-yl)thiophene-2-carbonyl)-3,6-diazabicyclo[3.1.1]heptan-6-yl)but-2-en-1-one] | 80 |
| CC(=O)OCC#Cc1ccc(C(=O)N2CC3CC(C2)N3C(=O)/C=C/CN(C)C)s1 [XS197-96, (E)-3-(5-(6-(4-(dimethylamino)but-2-enoyl)-3,6-diazabicyclo[3.1.1]heptane-3-carbonyl)thiophen-2-yl)prop-2-yn-1-yl acetate] | 45 |
| CC(=O)N1CC2(CC(C(=O)N3CC4CC(C3)N4C(=O)/C=C/CN(C)C)C2)C1 [XS197-133, (E)-1-(3-(2-acetyl-2-azaspiro[3.3]heptane-6-carbonyl)-3,6-diazabicyclo[3.1.1]heptan-6-yl)-4-(dimethylamino)but-2-en-1-one] | 25 |
| CC(=O)N1CCC(c2ccc(N3CC4CCC(C3=O)N4C(=O)/C=C/CN(C)C)s2)CC1 (stereo not shown) [XS197-145, (E)-3-(5-(1-acetylpiperidin-4-yl)thiophen-2-yl)-8-(4-(dimethylamino)but-2-enoyl)-3,8-diazabicyclo[3.2.1]octan-2-one] | 90 |
| CC(=O)N1CCC2(CC1)CC(C(=O)N1CC3CC(C1)N3C(=O)/C=C/CN(C)C)C2 [XS197-176, (E)-1-(3-(7-acetyl-7-azaspiro[3.5]nonane-2-carbonyl)-3,6-diazabicyclo[3.1.1]heptan-6-yl)-4-(dimethylamino)but-2-en-1-one] | 30 |
| Cc1ccc(N2CC3CCC(C2=O)N3C(=O)C#CCN(C)C)s1 (stereo not shown) [XS197-185, 8-(4-(dimethylamino)but-2-ynoyl)-3-(5-methylthiophen-2-yl)-3,8-diazabicyclo[3.2.1]octan-2-one] | 95 |
| CN(C)C/C=C/C(=O)N1Cc2ccccc2C1 [XS197-186, (E)-4-(dimethylamino)-1-(isoindolin-2-yl)but-2-en-1-one] | 15 |
| Cc1ccc(NC(=O)C2(C)CN(C(=O)/C=C/CN(C)C)C2)s1 [XS209-21, (E)-1-(4-(dimethylamino)but-2-enoyl)-3-methyl-N-(5-methylthiophen-2-yl)azetidine-3-carboxamide] | 22 |
| Cc1ccc(NC(=O)C2(O)CN(C(=O)/C=C/CN(C)C)C2)s1 [XS209-22, (E)-1-(4-(dimethylamino)but-2-enoyl)-3-hydroxy-N-(5-methylthiophen-2-yl)azetidine-3-carboxamide] | 47 |
| Cc1cnc(NC(=O)C2(C)CN(C(=O)/C=C/CN(C)C)C2)o1 [XS209-23, (E)-1-(4-(dimethylamino)but-2-enoyl)-3-methyl-N-(5-methyloxazol-2-yl)azetidine-3-carboxamide] | 10 |
| COc1ccc2c(c1)CN(C(=O)/C=C/CN(C)C)C2 [XS209-25, (E)-4-(dimethylamino)-1-(5-methoxyisoindolin-2-yl)but-2-en-1-one] | 5 |
| Cc1ccc(C(=O)N2CC3CC(C2)N3C(=O)C#CCN(C)C)s1 [XS209-26, 4-(dimethylamino)-1-(3-(5-methylthiophene-2-carbonyl)-3,6-diazabicyclo[3.1.1]heptan-6-yl)but-2-yn-1-one] | 98 |

| SMILES | % of OTUB1 modified [%] |
| --- | --- |
| CCC(=O)N1CC2CC(C1)N2C(=O)/C=C/CN(C)C [XS209-28, (E)-4-(dimethylamino)-1-(3-propionyl-3,6-diazabicyclo[3.1.1]heptan-6-yl)but-2-en-1-one] | 25 |
| CN(C)C/C=C/C(=O)N1C2CCC1C(=O)N(C1=CCCCC1)C2 (stereo not shown) [XS209-30, (E)-3-(cyclohex-1-en-1-yl)-8-(4-(dimethylamino)but-2-enoyl)-3,8-diazabicyclo[3.2.1]octan-2-one] | 75 |
| Cc1cnc(NC(=O)C2(C)CN(C(=O)/C=C/CN(C)C)C2)s1 [XS209-38, (E)-1-(4-(dimethylamino)but-2-enoyl)-3-methyl-N-(5-methylthiazol-2-yl)azetidine-3-carboxamide] | 20 |
| Cc1cnc(NC(=O)C2(O)CN(C(=O)/C=C/CN(C)C)C2)s1 [XS209-39, (E)-1-(4-(dimethylamino)but-2-enoyl)-3-hydroxy-N-(5-methylthiazol-2-yl)azetidine-3-carboxamide] | 40 |
| CCCC(=O)N1CC2CC(C1)N2C(=O)/C=C/CN(C)C [XS209-40, (E)-1-(3-butyryl-3,6-diazabicyclo[3.1.1]heptan-6-yl)-4-(dimethylamino)but-2-en-1-one] | 60 |
| CC(=O)N1CCC2(CCC(C(=O)N3CC4CC(C3)N4C(=O)/C=C/CN(C)C)CC2)C1 (stereo not shown) [XS209-53, (E)-1-(3-(2-acetyl-2-azaspiro[4.5]decane-8-carbonyl)-3,6-diazabicyclo[3.1.1]heptan-6-yl)-4-(dimethylamino)but-2-en-1-one] | 40 |
| CC(=O)N1CC2(CCC(C(=O)N3CC4CC(C3)N4C(=O)/C=C/CN(C)C)CC2)C1 [XS209-54, (E)-1-(3-(2-acetyl-2-azaspiro[3.5]nonane-7-carbonyl)-3,6-diazabicyclo[3.1.1]heptan-6-yl)-4-(dimethylamino)but-2-en-1-one] | 35 |
| Cc1cnc(C(=O)N2CC3CC(C2)N3C(=O)/C=C/CN(C)C)s1 [XS209-65, (E)-4-(dimethylamino)-1-(3-(5-methylthiazole-2-carbonyl)-3,6-diazabicyclo[3.1.1]heptan-6-yl)but-2-en-1-one] | 80 |
| Cc1ccc(N2CC3CCC(C2=O)N3C(=O)C#CC(C)(C)N(C)C)s1 (stereo not shown) [XS209-74, 8-(4-(dimethylamino)-4-methylpent-2-ynoyl)-3-(5-methylthiophen-2-yl)-3,8-diazabicyclo[3.2.1]octan-2-one] | 98 |
| Cc1ccc(C(=O)N2CC3CC(C2)N3C(=O)C#CC(C)(C)N(C)C)s1 [XS209-75, 4-(dimethylamino)-4-methyl-1-(3-(5-methylthiophene-2-carbonyl)-3,6-diazabicyclo[3.1.1]heptan-6-yl)pent-2-yn-1-one] | 75 |
| Cc1cnc(C(=O)N2CC3CC(C2)N3C(=O)/C=C/CN(C)C)o1 [XS209-92, (E)-4-(dimethylamino)-1-(3-(5-methyloxazole-2-carbonyl)-3,6-diazabicyclo[3.1.1]heptan-6-yl)but-2-en-1-one] | 15 |
| Cc1ccc(NC(=O)C2(O)CN(C(=O)C#CCN(C)C)C2)s1 [XS209-99, 1-(4-(dimethylamino)but-2-ynoyl)-3-hydroxy-N-(5-methylthiophen-2-yl)azetidine-3-carboxamide] | 98 |
| Cc1ccc(NC(=O)C2(O)CN(C(=O)C#CC(C)(C)N(C)C)C2)s1 [XS209-100, 1-(4-(dimethylamino)-4-methylpent-2-ynoyl)-3-hydroxy-N-(5-methylthiophen-2-yl)azetidine-3-carboxamide] | 25 |
| CC(=O)N1CC2CC(C1)N2C(=O)C#CCN(C)C [XS209-101, 1-(3-acetyl-3,6-diazabicyclo[3.1.1]heptan-6-yl)-4-(dimethylamino)but-2-yn-1-one] | 100 |
| Cc1ccc(NC(=O)C2CC3CCC(C2)N3C(=O)/C=C/CN(C)C)s1 (stereo not shown) [XS209-122, (E)-8-(4-(dimethylamino)but-2-enoyl)-N-(5-methylthiophen-2-yl)-8-azabicyclo[3.2.1]octane-3-carboxamide] | 2 |
| Cc1ccc(C(=O)NC2CC3CCC(C2)N3C(=O)/C=C/CN(C)C)s1 (stereo not shown) [XS209-139, (E)-N-(8-(4-(dimethylamino)but-2-enoyl)-8-azabicyclo[3.2.1]octan-3-yl)-5-methylthiophene-2-carboxamide] | 2 |
| Cc1ccc(C(=O)Nc2ccc(NC(=O)/C=C/CN(C)C)cc2)s1 [XS209-165, (E)-N-(4-(4-(dimethylamino)but-2-enamido)phenyl)-5-methylthiophene-2-carboxamide] | 20 |

Source: US20260315604A1, “OTUB1 Small-Molecule Binders and OTUB1-recruiting Deubiquitinase-targeting Chimeras (DUBTACs)” (ICAHN SCHOOL OF MEDICINE AT MOUNT SINAI, priority 2023, published 2026)
